Test results: US9040545B2, “Heterocyclyl pyrazolopyrimidine analogues as selective JAK inhibitors” (Cellzome Limited, priority 2010, dated 2015)

How the values were obtained:
Aurora A = target: T1, Aurora A (Homo sapiens, UniProt O14965); assay: Kinobeads assay, Aurora A; format: binding; conditions: for IC50: lysate of pervanadate-treated Jurkat cells, read-out: Inhibition values (IC50) Aur A
T1 construct: cell lysates from Jurkat cells (ATCC TIB-152) used; endogenous in cells; host or cells: Jurkat cells (ATCC TIB-152), treated with pervanadate
T1 sequence (O14965 1-403): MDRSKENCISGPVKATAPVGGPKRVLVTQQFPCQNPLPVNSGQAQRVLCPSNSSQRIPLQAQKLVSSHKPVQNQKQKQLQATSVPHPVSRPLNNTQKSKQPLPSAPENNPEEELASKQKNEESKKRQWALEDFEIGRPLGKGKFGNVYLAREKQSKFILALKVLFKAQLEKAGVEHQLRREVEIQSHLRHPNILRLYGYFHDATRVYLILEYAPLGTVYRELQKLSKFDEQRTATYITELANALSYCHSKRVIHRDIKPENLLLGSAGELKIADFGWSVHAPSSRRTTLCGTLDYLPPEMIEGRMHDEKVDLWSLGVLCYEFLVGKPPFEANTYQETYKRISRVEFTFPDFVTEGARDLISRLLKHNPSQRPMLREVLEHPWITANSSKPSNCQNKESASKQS

Aurora B = target: T2, Aurora B (Homo sapiens, UniProt Q96GD4); assay: Kinobeads assay, Aurora B; format: binding; conditions: for IC50: lysate of pervanadate-treated Jurkat cells, read-out: Inhibition values (IC50) Aur B
T2 construct: cell lysates from Jurkat cells (ATCC TIB-152) used; endogenous in cells; host or cells: Jurkat cells (ATCC TIB-152), treated with pervanadate
T2 sequence (Q96GD4 whole entry): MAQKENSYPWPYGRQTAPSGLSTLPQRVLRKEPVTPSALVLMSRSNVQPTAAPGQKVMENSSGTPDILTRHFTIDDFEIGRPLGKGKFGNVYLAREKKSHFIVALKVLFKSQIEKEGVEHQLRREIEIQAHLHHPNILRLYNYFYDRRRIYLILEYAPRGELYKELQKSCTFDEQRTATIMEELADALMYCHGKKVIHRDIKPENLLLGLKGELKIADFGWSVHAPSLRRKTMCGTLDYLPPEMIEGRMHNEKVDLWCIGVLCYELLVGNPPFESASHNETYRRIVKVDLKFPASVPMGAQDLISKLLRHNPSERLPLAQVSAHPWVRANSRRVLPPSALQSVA

Row | SMILES | JAK3/AurA Fold Selectivity (Aurora A) | IC50 (Aurora A) | JAK3/AurB Fold Selectivity (Aurora B) | IC50 (Aurora B)
1 | Cn1cc(Nc2ncc3cnn(Cc4c(F)c(F)cc(N5CCNCC5)c4F)c3n2)cn1 [Example 66, N-(1-Methyl-1H-pyrazol-4-yl)-1-(2,3,6-trifluoro-5-(piperazin-1-yl)benzyl)-1H-pyrazolo[3,4-d]pyrimidin-6-amine] | 10-50 Fold | 100 to 1000 nM | 3-10 Fold | < 100 nM
2 | c1cc(Cn2ncc3cnc(Nc4cnn(CC5CCNC5)c4)nc32)cc(N2CCOCC2)c1 (stereo not drawn) [Example 60, 1-(3-Morpholinobenzyl)-N-(1-(pyrrolidin-3-ylmethyl)-1H-pyrazol-4-yl)-1H-pyrazolo[3,4-d]pyrimidin-6-amine] | >50 Fold | 1000 to 10000 nM | >50 Fold | 1000 to 10000 nM
3 | COC1CN(c2cccc(Cn3ncc4cnc(Nc5cnn(C)c5)nc43)c2)C1 [Example 65, 1-(3-(3-Methoxyazetidin-1-yl)benzyl)-N-(1-methyl-1H-pyrazol-4-yl)-1H-pyrazolo[3,4-d]pyrimidin-6-amine] | >50 Fold | 1000 to 10000 nM | >50 Fold | 1000 to 10000 nM
4 | CN(C)CCCn1cc(Nc2ncc3cnn(Cc4c(F)c(F)cc(N5CCOCC5=O)c4F)c3n2)cn1 [Example 70, 4-(3-((6-((1-(3-(Dimethylamino)propyl)-1H-pyrazol-4-yl)amino)-1H-pyrazolo[3,4-d]pyrimidin-1-yl)methyl)-2,4,5-trifluorophenyl)morpholin-3-one] | >50 Fold | 1000 to 10000 nM | 10-50 Fold | 100 to 1000 nM
5 | Cn1cc(Nc2ncc3cnn(Cc4cc(F)cc(N5CCOCC5=O)c4F)c3n2)cn1 [Example 73, 4-(2,5-Difluoro-3-((6-((1-methyl-1H-pyrazol-4-yl)amino)-1H-pyrazolo[3,4-d]pyrimidin-1-yl)methyl)phenyl)morpholin-3-one] | 10-50 Fold | 100 to 1000 nM | 10-50 Fold | 100 to 1000 nM
6 | O=C1COCCN1c1cc(F)cc(Cn2ncc3cnc(Nc4cnn(CCO)c4)nc32)c1 [Example 58, 4-(3-Fluoro-5-((6-((1-(2-hydroxyethyl)-1H-pyrazol-4-yl)amino)-1H-pyrazolo[3,4-d]pyrimidin-1-yl)methyl)phenyl)morpholin-3-one] | 10-50 Fold | 100 to 1000 nM | 10-50 Fold | 100 to 1000 nM
7 | Cn1cc(Nc2ncc3cnn(Cc4cccc(N5CCNCC5=O)c4F)c3n2)cn1 [Example 54, 1-(2-Fluoro-3-((6-((1-methyl-1H-pyrazol-4-yl)amino)-1H-pyrazolo[3,4-d]pyrimidin-1-yl)methyl)phenyl)piperazin-2-one] | >50 Fold | 100 to 1000 nM | >50 Fold | 1000 to 10000 nM
8 | O=C1COCCN1c1cc(F)c(F)c(Cn2ncc3cnc(Nc4cnn(CCO)c4)nc32)c1F [Example 62, 4-(2,4,5-Trifluoro-3-((6-((1-(2-hydroxyethyl)-1H-pyrazol-4-yl)amino)-1H-pyrazolo[3,4-d]pyrimidin-1-yl)methyl)phenyl)morpholin-3-one] | 10-50 Fold | 100 to 1000 nM | 10-50 Fold | 100 to 1000 nM
9 | CNC(=O)Cn1cc(Nc2ncc3cnn(Cc4cc(F)cc(N5CCOCC5=O)c4)c3n2)cn1 [Example 68, 2-(4-((1-(3-Fluoro-5-(3-oxomorpholino)benzyl)-1H-pyrazolo[3,4-d]pyrimidin-6-yl)amino)-1H-pyrazol-1-yl)-N-methylacetamide] | 10-50 Fold | 100 to 1000 nM | >50 Fold | 100 to 1000 nM
10 | OCCn1cc(Nc2ncc3cnn(Cc4cc(N5CCOCC5)cc(F)c4F)c3n2)cn1 [Example 56, 2-(4-((1-(2,3-Difluoro-5-morpholinobenzyl)-1H-pyrazolo[3,4-d]pyrimidin-6-yl)amino)-1H-pyrazol-1-yl)ethanol] | >50 Fold | 1000 to 10000 nM | >50 Fold | 1000 to 10000 nM
11 | OCCn1cc(Nc2ncc3cnn(Cc4c(F)c(F)cc(N5CCOCC5)c4F)c3n2)cn1 [Example 45, 2-(4-((1-(2,3,6-Trifluoro-5-morpholinobenzyl)-1H-pyrazolo[3,4-d]pyrimidin-6-yl)amino)-1H-pyrazol-1-yl)ethanol] | 10-50 Fold | 100 to 1000 nM | 10-50 Fold | 100 to 1000 nM

Now from value to compound:

Row | JAK3/AurA Fold Selectivity (Aurora A) | IC50 (Aurora A) | JAK3/AurB Fold Selectivity (Aurora B) | IC50 (Aurora B) | SMILES
12 | 10-50 Fold | 100 to 1000 nM | 3-10 Fold | < 100 nM | OCCn1cc(Nc2ncc3cnn(Cc4cccc(N5CCNCC5)c4F)c3n2)cn1 [Example 83, 2-(4-((1-(2-Fluoro-3-(piperazin-1-yl)benzyl)-1H-pyrazolo[3,4-d]pyrimidin-6-yl)amino)-1H-pyrazol-1-yl)ethanol]
13 | 10-50 Fold | 100 to 1000 nM | 3-10 Fold | < 100 nM | CN(C)CCCn1cc(Nc2ncc3cnn(Cc4c(F)ccc(N5CCOCC5=O)c4F)c3n2)cn1 [Example 75, 4-(3-((6-((1-(3-(Dimethylamino)propyl)-1H-pyrazol-4-yl)amino)-1H-pyrazolo[3,4-d]pyrimidin-1-yl)methyl)-2,4-difluorophenyl)morpholin-3-one]
14 | >50 Fold | 100 to 1000 nM | >50 Fold | 1000 to 10000 nM | O=C(c1cccc(Cn2ncc3cnc(Nc4cnn(CCO)c4)nc32)c1F)N1CCOCC1 [Example 85, (2-Fluoro-3-((6-((1-(2-hydroxyethyl)-1H-pyrazol-4-yl)amino)-1H-pyrazolo[3,4-d]pyrimidin-1-yl)methyl)phenyl)(morpholino)methanone]
15 | 3-10 Fold | 100 to 1000 nM | 10-50 Fold | 100 to 1000 nM | Cn1cc(Nc2ncc3cnn(Cc4cc(F)cc(C(=O)N5CCNCC5)c4)c3n2)cn1 [Example 80, (3-Fluoro-5-((6-((1-methyl-1H-pyrazol-4-yl)amino)-1H-pyrazolo[3,4-d]pyrimidin-1-yl)methyl)phenyl)(piperazin-1-yl)methanone]
16 | >50 Fold | 1000 to 10000 nM | >50 Fold | 1000 to 10000 nM | Cn1cc(Nc2ncc3cnn(Cc4cccc(C(=O)N5CCOCC5)c4F)c3n2)cn1 [Example 87, (2-Fluoro-3-((6-((1-methyl-1H-pyrazol-4-yl)amino)-1H-pyrazolo[3,4-d]pyrimidin-1-yl)methyl)phenyl)(morpholino)methanone]
17 | 3-10 Fold | < 100 nM | 3-10 Fold | 100 to 1000 nM | Cn1cc(Nc2ncc3cnn(Cc4c(F)ccc(N5CCNCC5=O)c4F)c3n2)cn1 [Example 76, 1-(2,4-Difluoro-3-((6-((1-methyl-1H-pyrazol-4-yl)amino)-1H-pyrazolo[3,4-d]pyrimidin-1-yl)methyl)phenyl)piperazin-2-one]
18 | >50 Fold | 100 to 1000 nM | 10-50 Fold | 100 to 1000 nM | O=C1COCCN1c1cc(F)cc(Cn2ncc3cnc(Nc4cn[nH]c4)nc32)c1 [Example 84, 4-(3-((6-((1H-Pyrazol-4-yl)amino)-1H-pyrazolo[3,4-d]pyrimidin-1-yl)methyl)-5-fluorophenyl)morpholin-3-one]
